Experimental data as given in the supplement of paper PMC10307832.

Tests used:
Experiment in all cases: relative viability (nuclei count vs DMSO), 5 days (fraction); higher = more cells survive
Veliparib + Luminespib = compound: C[C@]1(c2nc3c(C(N)=O)cccc3[nH]2)CCCN1 [Veliparib] + CCNC(=O)c1noc(-c2cc(C(C)C)c(O)cc2O)c1-c1ccc(CN2CCOCC2)cc1 [Luminespib] (partner 0.01 µM)
Method in brief: (§1)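 A single step with final 0.05% Triton X-100, 1% formaldehyde and 1 ug/ml Hoechst fixed the cells and stained nuclei 5 days after treatment. Lung cancer cell lines in 1536-well plates had been treated by pin tool the day after seeding with one drug alone or a fixed anchor-drug dose plus five library-drug doses (not always all listed) in √10 steps, and nuclei were counted on 4× images. Relative viability is the ratio of nuclei in treated wells to nuclei in vehicle wells, taken as the median of duplicate plates.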

Veliparib + Phenformin = compound: C[C@]1(c2nc3c(C(N)=O)cccc3[nH]2)CCCN1 [Veliparib] + N=C(N)NC(=N)NCCc1ccccc1 [Phenformin] (partner 250 µM)
Method in brief: as §1

[1] = compound: COC1=CC=C(C=C1)CN2C=CC3=C2C=C(C=C3)C(=O)NO + CS(=O)(=O)CCNCc1ccc(-c2ccc3ncnc(Nc4ccc(OCc5cccc(F)c5)c(Cl)c4)c3c2)o1 [Lapatinib] (partner 2 µM)
Method in brief: as §1

Veliparib + Palbociclib = compound: C[C@]1(c2nc3c(C(N)=O)cccc3[nH]2)CCCN1 [Veliparib] + CC(=O)c1c(C)c2cnc(Nc3ccc(N4CCNCC4)cn3)nc2n(C2CCCC2)c1=O [Palbociclib] (partner 0.5 µM)
Method in brief: as §1

Row | Cell Line | relative viability (Veliparib + Luminespib; first compound 0.02 µM) | relative viability (Veliparib + Luminespib; first compound 0.06325 µM) | relative viability (Veliparib + Luminespib; first compound 0.2 µM) | relative viability (Veliparib + Luminespib; first compound 0.6325 µM) | relative viability (Veliparib + Luminespib; first compound 2 µM) | relative viability (Veliparib + Phenformin; first compound 0.02 µM) | relative viability (Veliparib + Phenformin; first compound 0.06325 µM) | relative viability (Veliparib + Phenformin; first compound 0.2 µM) | relative viability (Veliparib + Phenformin; first compound 0.6325 µM) | relative viability (Veliparib + Phenformin; first compound 2 µM) | relative viability ([1]; first compound 0.08 µM) | relative viability ([1]; first compound 0.253 µM) | relative viability ([1]; first compound 0.8 µM) | relative viability ([1]; first compound 2.53 µM) | relative viability ([1]; first compound 8 µM) | relative viability (Veliparib + Palbociclib; first compound 0.02 µM) | relative viability (Veliparib + Palbociclib; first compound 0.2 µM) | relative viability (Veliparib + Palbociclib; first compound 0.6325 µM) | relative viability (Veliparib + Palbociclib; first compound 2 µM) | relative viability (Veliparib + Palbociclib; first compound 0.06325 µM)
1 | PC-3 [JPC-3] | 0.65 | 0.711 | 0.753 | 0.662 | 0.66 | 0.471 | 0.478 | 0.498 | 0.469 | 0.495 | 0.423 | 0.486 | 0.493 | 0.49 | 0.478 | 0.54 | 0.493 | 0.566 | 0.543 | –
2 | NCI-H23 | 0.168 | – | 0.251 | 0.24 | 0.228 | 0.851 | 0.73 | 0.762 | 0.756 | 0.833 | 0.383 | 1.21 | 1.06 | 1.01 | 0.88 | 0.546 | 0.445 | 0.486 | 0.516 | 0.428
3 | SK-MES-1 | 0.827 | 0.467 | 0.897 | 0.735 | 0.898 | 0.707 | 0.626 | 0.628 | 0.599 | 0.663 | 0.473 | 0.519 | 0.534 | 0.497 | 0.446 | 0.334 | 0.329 | 0.307 | 0.297 | 0.278
4 | NCI-H1651 | 0.724 | 0.806 | 0.88 | 0.486 | 0.651 | 0.286 | 0.34 | 0.379 | 0.279 | 0.316 | 0.425 | 0.886 | 0.857 | 0.767 | 0.746 | 0.513 | 0.52 | 0.499 | 0.485 | 0.497
5 | SK-LU-1 | 0.227 | 0.195 | 0.232 | 0.199 | 0.22 | 0.588 | 0.524 | 0.544 | 0.512 | 0.506 | 0.711 | 0.781 | 1.04 | 0.905 | 0.81 | 0.426 | 0.394 | 0.362 | 0.378 | 0.379
6 | NCI-H727 | 0.442 | 0.33 | 0.364 | 0.265 | 0.353 | 0.481 | 0.443 | 0.549 | 0.483 | 0.521 | 0.775 | 0.927 | 0.868 | 0.942 | 0.915 | 0.7 | 0.624 | 0.661 | 0.605 | 0.689
7 | NCI-H3122 | 0.0959 | 0.0908 | 0.097 | 0.0912 | 0.0755 | 0.335 | 0.345 | 0.384 | 0.357 | 0.387 | 0.959 | 0.934 | 1.03 | 1.04 | 0.959 | 0.166 | 0.207 | 0.179 | 0.192 | 0.147
8 | HOP-62 | 0.831 | 0.858 | 0.783 | 0.669 | 0.836 | 0.514 | 0.61 | 0.61 | 0.613 | 0.723 | 0.225 | 1.1 | 1.08 | 0.997 | 0.973 | 0.384 | 0.483 | 0.343 | 0.368 | 0.333
9 | LC-2-ad | – | 0.947 | 1.04 | 0.982 | 1.03 | – | 0.551 | 0.631 | 0.589 | 0.472 | 0.259 | 0.948 | 0.972 | 0.931 | 0.92 | 0.485 | 0.508 | 0.477 | 0.505 | 0.496
10 | LCLC-103H | 0.987 | 0.888 | 1.04 | 0.907 | 0.992 | 0.328 | 0.353 | 0.341 | 0.325 | 0.327 | – | – | – | – | – | 0.44 | 0.48 | 0.44 | 0.456 | 0.417
11 | NCI-H1703 | – | – | – | – | – | – | – | – | – | – | 0.691 | 1.16 | 1.1 | 1.07 | 0.873 | – | – | – | – | –
12 | HCC-366 | – | – | – | – | – | 0.582 | 0.578 | 0.576 | 0.522 | 0.636 | – | 0.992 | 1.06 | 1.04 | 1.07 | 0.352 | 0.369 | 0.371 | 0.341 | 0.371
13 | EBC-1 | – | – | – | – | – | – | – | – | – | – | – | 0.226 | 0.211 | 0.232 | 0.208 | – | – | – | – | –
14 | HCC-78 | – | – | – | – | – | 0.688 | 0.711 | 0.71 | 0.758 | 0.544 | – | 0.706 | 0.731 | 0.715 | 0.733 | 0.459 | 0.454 | 0.456 | 0.442 | 0.458
15 | NCI-H522 | 1.18 | 1.21 | 1.16 | 1.18 | 1.25 | 0.683 | 0.664 | 0.667 | 0.583 | 0.802 | – | – | – | – | – | 1.01 | 1.18 | 1.11 | 1 | 0.864
16 | A549 | – | – | – | – | – | – | 0.209 | 0.166 | 0.143 | 0.185 | – | 0.931 | 1.09 | 0.953 | 0.915 | – | – | – | – | –
17 | NCI-H1563 | 0.484 | 0.536 | 0.526 | 0.49 | 0.535 | 0.594 | 0.638 | 0.686 | 0.643 | 0.667 | 0.769 | 0.939 | 0.953 | 0.862 | 0.748 | – | – | – | – | –
18 | NCI-H2342 | 0.687 | 0.729 | 0.594 | 0.972 | 0.666 | 0.583 | 0.589 | 0.506 | 0.579 | 0.587 | – | – | – | – | – | 0.482 | 0.503 | 0.522 | 0.491 | 0.581
19 | NCI-H1623 | – | 0.467 | 0.596 | 0.434 | 0.409 | – | 0.514 | 0.605 | 0.583 | 0.545 | – | – | – | – | – | – | – | – | – | –
20 | SW 900 | – | – | 0.204 | 0.19 | 0.118 | – | – | 0.679 | 0.504 | 0.508 | – | – | – | – | – | – | 0.557 | 0.539 | 0.56 | 0.516
21 | NCI-H1299 | – | – | – | – | – | – | – | – | – | – | 0.959 | 0.979 | 0.969 | 0.934 | 0.923 | – | – | – | – | –
22 | Calu-6 | – | – | – | – | – | – | – | – | – | – | 0.432 | 1.05 | 1.06 | 1.1 | 1.03 | – | – | – | – | –
